Experiments:
Fibroblast [1] = test: Cytotoxicity against human fibroblasts assessed as reduction in cell viability at 0.01 to 3 mM measured after 72 hrs by MTT assay relative to control; assay type: toxicity, cell-based; conditions: 3000 µM, dose 0.01-3 mM
D54 cell line = test: Cytotoxicity against human D54 cells assessed as cell killing at 1 mM measured after 72 hrs by MTT assay; assay type: functional
[2] = Drug uptake in human fibroblasts assessed as boron accumulation at 1 mM measured after 24 hrs per mg of cell pellet by ICP-MS analysis (reference value: 0.30 +/- 0.09 ng/mg); assay type: ADME, cell-based; conditions: fibroblast, 1000 µM
[3] = Drug uptake in human D54 cells assessed as boron accumulation at 1 mM measured after 2 hrs per mg of cell pellet by ICP-MS analysis (reference value: 0.15 +/- 0.19 ng/mg); assay type: ADME, cell-based; conditions: d54, 2 h, 1000 µM
Fibroblast [4] = test: Cytotoxicity against human fibroblasts assessed as reduction in cell viability at 0.01 to 3 mM measured after 24 hrs by MTT assay; assay type: toxicity, cell-based; conditions: 3000 µM, dose 0.01-3 mM
[5] = Drug uptake in human D54 cells assessed as boron accumulation at 1 mM measured after 24 hrs per mg of cell pellet by ICP-MS analysis (reference value: 0.15 +/- 0.19 ng/mg); assay type: ADME, cell-based; conditions: d54, 24 h, 1000 µM

Drug uptake [2] [ng/mg] | Drug uptake [3] [ng/mg] | Drug uptake [5] [ng/mg] | Structure (SMILES) | Activity (Fibroblast [1]) [%] | Activity (D54 cell line) [%] | Activity (Fibroblast [4])
– | – | – | N[C@@H](Cc1ccc(B(O)O)cc1)C(=O)O | -19 | – | –
0.85 | 3 | 6 | OB1CC[C@H]2OC(O)[C@H](O)[C@@H](O)[C@@H]2O1 (some centres not stated) | -10 | 15 | Non-Toxic

Source: ChEMBL document CHEMBL5120771, “Synthesis, equilibrium, and biological study of a C-7 glucose boronic acid derivative as a potential candidate for boron neutron capture therapy” (Bioorg Med Chem, 2022)
